From patent publication US12091405B2, “Substituted pyrazole compounds as indoleamine 2,3-dioxygenase inhibitors” (Merck Sharp & Dohme LLC, priority 2018, dated 2024)

Biological target: IDO1 (Homo sapiens, UniProt P14902)
Assay: IDO1 Cellular Assay in HeLa Cells Stimulated with IFNγ
Type: cell-based
Conditions: IFNγ 100 ng/mL, 300 uM L-tryptophan, about 48 hours, fluorescence readout, read-out: IDO1 HELA Cell Assay, IC50
Method: Biological Assays IDO1 Cellular Assay in HeLa Cells Stimulated with IFNγ
HeLa cells were cultured in complete HeLa culture medium (90% EMEM, 10% heat-inactivated fetal bovine serum) and expanded to about 1×10^9 cells. The cells were then collected and frozen down at 1×10^7 cells/vial in 1 mL frozen medium (90% complete HeLa culture medium, 10% DMSO).
Compounds to be tested were serially diluted in ten 3-fold steps in DMSO starting from 10 mM DMSO stocks in Echo low volume plate(s). Compound dilutions or DMSO alone were then dispensed from the dilution plate(s) into Greiner black 384-well assay plate(s) (catalog #781086, 50 nL/well) using an Echo 550 acoustic liquid handler (Labcyte).
Frozen HeLa cells were thawed and transferred into HeLa assay medium (99% complete HeLa culture medium, 1% Pen/Strep) with 20 mL medium/vial of cells. The cells were spun down at 250 g in a table top centrifuge for 5 min and suspended in same volume of HeLa assay medium. The cells were then counted and adjusted to a density of 2×10^5 cells/mL in HeLa assay medium. Sterile L-tryptophan were added to the cells with final concentration of 300 uM L-tryptophan. A small aliquot (2 mL/plate) of HeLa cells were set aside and were not treated with IFNγ, to serve as the Max-E control.
HeLa cells with and without IFNγ were dispensed to the respective wells of 384-well assay plates containing the compounds. The plates were incubated for about 48 hours at a 37° C., 5% CO2 incubator. Afterwards, 12 μL of 0.5 M methyl isonipecotate in dimethyl sulfoxide were added into each well and the plates were sealed and incubated at 37° C. without CO2 overnight. The plates were centrifuged for 1 min at 200×g. The resulting fluorescence was measured in a Spectramax plate reader (Molecular Devices) with a 400 nm excitation filter and a 510 nm emission filter.
The fluorescence intensity of each well was corrected for the background observed in wells with non-IFNγ-treated cells and was expressed as a fraction of the intensity observed in wells of IFNγ-treated cells and DMSO only. Potencies were calculated by linear least squares fit to the four parameter logistic IC50 equation.
Compounds disclosed herein generally have IC50 of about 0.1 nM to about 20,000 nM, or more specifically, about 1 nM to about 10,000 nM, or more specifically, about 5 nM to about 5,000 nM, or more specifically, about 10 nM to about 1,000 nM, or still more specifically, about 10 nM to about 500 nM.

IDO1, sequence (P14902 whole entry): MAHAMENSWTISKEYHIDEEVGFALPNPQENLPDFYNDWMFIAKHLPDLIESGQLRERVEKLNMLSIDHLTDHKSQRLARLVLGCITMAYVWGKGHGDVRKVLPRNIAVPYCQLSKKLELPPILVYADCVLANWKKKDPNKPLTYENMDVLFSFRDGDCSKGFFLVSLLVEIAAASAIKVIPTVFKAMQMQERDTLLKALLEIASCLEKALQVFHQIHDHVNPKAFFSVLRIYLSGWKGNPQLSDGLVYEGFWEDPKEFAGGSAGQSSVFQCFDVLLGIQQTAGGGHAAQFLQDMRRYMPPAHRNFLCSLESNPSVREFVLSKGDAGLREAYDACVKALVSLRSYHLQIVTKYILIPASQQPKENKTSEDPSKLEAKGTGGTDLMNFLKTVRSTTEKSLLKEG

| SMILES | IC50 |
| --- | --- |
| C[C@@H]1CN(C(=O)c2nn(CC(=O)N3CCC(c4cccc5sccc45)CC3)c3c2CCC3)C[C@H](C)O1 [Example 88, 1-[4-(1-benzothiophen-4-yl)piperidin-1-yl]-2-{3-[(2R,6S)-2,6-dimethylmorpholine-4-carbonyl]-5,6-dihydrocyclopenta[c]pyrazol-1(4H)-yl}ethan-1-one] | 8.3 nM |
| Cc1cc(F)ccc1C1CCN(C(=O)Cn2nc(C(=O)N3CC[C@@H](O)[C@H](F)C3)c3c2CCC3)CC1 [Example 54, 1-(4-(4-fluoro-2-methylphenyl)piperidin-1-yl)-2-(3-((3R,4R)-3-fluoro-4-hydroxypiperidine-1-carbonyl)-5,6-dihydrocyclopenta[c]pyrazol-1(4H)-yl)ethanone] | 162 nM |
| C[C@@H]1CN(C(=O)c2nn(CC(=O)N3CCC(c4ccccc4C(F)(F)F)C3)c3c2CCC3)C[C@H](C)O1 (stereo partly drawn) [Example 73, 2-{3-[(2R,6S)-2,6-dimethylmorpholine-4-carbonyl]-5,6-dihydrocyclopenta[c]pyrazol-1(4H)-yl}-1-{3-[2-(trifluoromethyl)phenyl]pyrrolidin-1-yl}ethan-1-one] | 152 nM |
| C[C@@H]1CN(C(=O)c2nn(CC(=O)N3CCC(c4cc(F)cc(C(F)(F)F)c4)CC3)c3c2CCC3)C[C@H](C)O1 [Example 141, 2-{3-[(2R,6S)-2,6-dimethylmorpholine-4-carbonyl]-5,6-dihydrocyclopenta[c]pyrazol-1(4H)-yl}-1-{4-[3-fluoro-5-(trifluoromethyl)phenyl]piperidin-1-yl}ethan-1-one] | 97.4 nM |
| Cc1ccc(C2CCN(C(=O)Cn3nc(C(=O)N4C[C@@H](C)O[C@@H](C)C4)c4c3CCC4)CC2)cc1Cl [Example 111, 1-[4-(3-chloro-4-methylphenyl)piperidin-1-yl]-2-{3-[(2R,6S)-2,6-dimethylmorpholine-4-carbonyl]-5,6-dihydrocyclopenta[c]pyrazol-1(4H)-yl}ethan-1-one] | 40.3 nM |
| C[C@@H]1CN(C(=O)c2nn(CC(=O)N3CCC(c4ccc(C(F)F)c(F)c4)CC3)c3c2CCC3)C[C@H](C)O1 [Example 140, 1-{4-[4-(difluoromethyl)-3-fluorophenyl]piperidin-1-yl}-2-{3-[(2R,6S)-2,6-dimethylmorpholine-4-carbonyl]-5,6-dihydrocyclopenta[c]pyrazol-1(4H)-yl}ethan-1-one] | 89 nM |
| COc1c(F)cc(C2CCN(C(=O)Cn3nc(C(=O)N4C[C@@H](C)O[C@@H](C)C4)c4c3CCC4)CC2)cc1F [Example 134, 1-[4-(3,5-difluoro-4-methoxyphenyl)piperidin-1-yl]-2-{3-[(2R,6S)-2,6-dimethylmorpholine-4-carbonyl]-5,6-dihydrocyclopenta[c]pyrazol-1(4H)-yl}ethan-1-one] | 82.1 nM |
| Cc1cccc(C2CCN(C(=O)Cn3nc(C(=O)N4CCC(OCCO)CC4)c4c3CCCC4)CC2)c1C [Example 38, 1-(4-(2,3-dimethylphenyl)piperidin-1-yl)-2-(3-(4-(2-hydroxyethoxy)piperidine-1-carbonyl)-4,5,6,7-tetrahydro-1H-indazol-1-yl)ethanone] | 1.9 nM |
| Cc1c(C2CCN(C(=O)Cn3nc(C(=O)N4CCC(O)CC4)c4c3C[C@H]3C[C@@H]43)CC2)cccc1C(F)(F)F [Example 2, 2-((3bR,4aR)-3-(4-hydroxypiperidine-1-carbonyl)-3b,4,4a,5-tetrahydro-1H-cyclopropa[3,4]cyclopenta[1,2-c]pyrazol-1-yl)-1-(4-(2-methyl-3-(trifluoromethyl)phenyl)piperidin-1-yl) ethanone] | 1.6 nM |
| C[C@@H]1CN(C(=O)c2nn(CC(=O)N3CCC(c4cccc(Cl)c4Cl)CC3)c3c2CCC3)C[C@H](C)O1 [Example 87, 1-[4-(2,3-dichlorophenyl)piperidin-1-yl]-2-{3-[(2R,6S)-2,6-dimethylmorpholine-4-carbonyl]-5,6-dihydrocyclopenta[c]pyrazol-1(4H)-yl}ethan-1-one] | 7.8 nM |
| C[C@@H]1CN(C(=O)c2nn(CC(=O)N3CCC(c4cc(F)c(F)cc4F)CC3)c3c2CCC3)C[C@H](C)O1 [Example 149, 2-{3-[(2R,6S)-2,6-dimethylmorpholine-4-carbonyl]-5,6-dihydrocyclopenta[c]pyrazol-1(4H)-yl}-1-[4-(2,4,5-trifluorophenyl)piperidin-1-yl]ethan-1-one] | 120 nM |
| C[C@@H]1CN(C(=O)c2nn(CC(=O)N3CCC(c4cccc(C(F)(F)F)c4F)CC3)c3c2CCC3)C[C@H](C)O1 [Example 104, 2-{3-[(2R,6S)-2,6-dimethylmorpholine-4-carbonyl]-5,6-dihydrocyclopenta[c]pyrazol-1(4H)-yl}-1-{4-[2-fluoro-3-(trifluoromethyl)phenyl]piperidin-1-yl}ethan-1-one] | 29.8 nM |

Second part, the compound after the results:

| IC50 | SMILES |
| --- | --- |
| 27.7 nM | C[C@@H]1CN(C(=O)c2nn(CC(=O)N3CCC(c4ccc(F)c(Cl)c4)CC3)c3c2CCC3)C[C@H](C)O1 [Example 100, 1-[4-(3-chloro-4-fluorophenyl)piperidin-1-yl]-2-{3-[(2R,6S)-2,6-dimethylmorpholine-4-carbonyl]-5,6-dihydrocyclopenta[c]pyrazol-1(4H)-yl}ethan-1-one] |
| 102 nM | [2H]c1c([2H])c([2H])c(C2CCN(C(=O)Cn3nc(C(=O)N4C[C@@H](C)O[C@@H](C)C4)c4c3CCC4)CC2)c([2H])c1[2H] [Example 143, 2-{3-[(2R,6S)-2,6-dimethylmorpholine-4-carbonyl]-5,6-dihydrocyclopenta[c]pyrazol-1(4H)-yl}-1-[4-(~2~H_5_)phenylpiperidin-1-yl]ethan-1-one] |
| 1.8 nM | Cc1cccc(C2CCN(C(=O)Cn3nc(C(=O)N4CC[C@H](O)[C@H](F)C4)c4c3CCC4)CC2)c1C [Example 59, 1-(4-(2,3-dimethylphenyl)piperidin-1-yl)-2-(3-((3R,4S)-3-fluoro-4-hydroxypiperidine-1-carbonyl)-5,6-dihydrocyclopenta[c]pyrazol-1(4H)-yl)ethanone] |
| 1.9 nM | Cc1cccc(C2CCN(C(=O)Cn3nc(C(=O)N4CC[C@@H](O)[C@H](C)C4)c4c3CCC4)CC2)c1C [Example 39, 1-(4-(2,3-dimethylphenyl)piperidin-1-yl)-2-(3-((3R,4R)-4-hydroxy-3-methylpiperidine-1-carbonyl)-5,6-dihydrocyclopenta[c]pyrazol-1(4H)-yl)ethan-1-one] |
| 1.2 nM | Cc1cccc(C2CCN(C(=O)Cn3nc(C(=O)N4CCC(O)CC4)c4c3CCCC4)CC2)c1C [Example 34, 1-(4-(2,3-dimethylphenyl)piperidin-1-yl)-2-(3-(4-hydroxypiperidine-1-carbonyl)-4,5,6,7-tetrahydro-1H-indazol-1-yl)ethanone] |
| 296 nM | CC(C)c1ccc(C2CCN(C(=O)Cn3nc(C(=O)N4C[C@@H](C)O[C@@H](C)C4)c4c3CCC4)CC2)cc1 [Example 168, 2-{3-[(2R,6S)-2,6-dimethylmorpholine-4-carbonyl]-5,6-dihydrocyclopenta[c]pyrazol-1(4H)-yl}-1-{4-[4-(propan-2-yl)phenyl]piperidin-1-yl}ethan-1-one] |
| 261 nM | C[C@@H]1CN(C(=O)c2nn(CC(=O)N3CCC(c4cc(Cl)ccc4F)CC3)c3c2CCC3)C[C@H](C)O1 [Example 166, 1-[4-(5-chloro-2-fluorophenyl)piperidin-1-yl]-2-{3-[(2R,6S)-2,6-dimethylmorpholine-4-carbonyl]-5,6-dihydrocyclopenta[c]pyrazol-1(4H)-yl}ethan-1-one] |
| 1.7 nM | Cc1c(C2CCN(C(=O)Cn3nc(C(=O)N4CCO[C@@H](CO)C4)c4c3C[C@H]3C[C@@H]43)CC2)cccc1C(F)(F)F [Example 5, 2-((3bR,4aR)-3-((R)-2-(hydroxymethyl)morpholine-4-carbonyl)-3b,4,4a,5-tetrahydro-1H-cyclopropa[3,4]cyclopenta[1,2-c]pyrazol-1-yl)-1-(4-(2-methyl-3-(trifluoromethyl)phenyl)piperidin-1-yl)ethanone] |
| 17.6 nM | Cc1cccc(C2CCN(C(=O)Cn3nc(C(=O)N4CCN(C(=O)CO)CC4)c4c3CCC4)CC2)c1C [Example 47, 1-(4-(2,3-dimethylphenyl)piperidin-1-yl)-2-(3-(4-(2-hydroxyacetyl)piperazine-1-carbonyl)-5,6-dihydrocyclopenta[c]pyrazol-1(4H)-yl)ethanone] |
| 195 nM | COc1ccccc1C1CCN(C(=O)Cn2nc(C(=O)N3C[C@@H](C)O[C@@H](C)C3)c3c2CCC3)CC1 [Example 75, 2-{3-[(2R,6S)-2,6-dimethylmorpholine-4-carbonyl]-5,6-dihydrocyclopenta[c]pyrazol-1(4H)-yl}-1-[4-(2-methoxyphenyl)piperidin-1-yl]ethan-1-one] |
